One block for each compound: values may come before it. Activity calls are given as the source filed them.
Assays:
[1] = HIV-1 Vif–A3G interaction blockers – biochemical, TR-FRET, GST-Vif 1-94, biotin-A3G peptide, dose response retest, primary screen (AID 1117319); type: functional;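 further: TR-FRET signal of purified GST-Vif binding a biotinylated A3G peptide; inhibitors lower the FRET signal by blocking Vif and A3G binding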
[2] = target: T1, Bcl-2-related protein A1 (Mus musculus, UniProt Q07440); type: functional;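 further: confirmatory dose–response counterscreen on Bfl-1, used to check hits from a UBC13 polyubiquitin inhibitor campaign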
T1 sequence (Q07440 whole entry): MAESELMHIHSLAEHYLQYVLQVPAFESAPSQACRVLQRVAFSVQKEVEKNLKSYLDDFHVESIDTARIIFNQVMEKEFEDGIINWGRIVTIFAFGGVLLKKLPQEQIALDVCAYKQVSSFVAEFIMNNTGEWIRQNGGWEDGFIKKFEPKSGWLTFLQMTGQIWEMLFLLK

[3] = target: T2, Ubiquitin-conjugating enzyme E2 N (Homo sapiens, UniProt P61088); type: functional
T2 sequence (P61088 whole entry): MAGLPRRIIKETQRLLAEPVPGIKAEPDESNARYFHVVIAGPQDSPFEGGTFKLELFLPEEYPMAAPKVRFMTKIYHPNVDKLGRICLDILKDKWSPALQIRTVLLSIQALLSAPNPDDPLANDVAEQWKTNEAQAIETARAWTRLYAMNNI

[4] = target: T2, Ubiquitin-conjugating enzyme E2 N; type: functional; remark: listed apart in the source
[5] = Trypanosoma cruzi growth suppression in host cells – NIH3T3 host cells, beta-gal luminescence, confirmation (AID 2044); type: functional, cell-based;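 further: intracellular parasites grown in NIH/3T3 mouse fibroblasts as host cells; luminescent beta-galactosidase reporter signal from transgenic T. cruzi replicating inside host cells; inhibitors lower the luminescence signal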
[6] = NIH3T3 cell viability loss – ATP luminescence, mouse fibroblasts, counter-screen, dose response (AID 2010); type: functional, cell-based;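 further: cells exposed to compound for about 90 hours before reading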
[7] = target: Fatty acid synthase (Homo sapiens, UniProt P49327); assay: inhibition of human FAS-TE enzyme activity – biochemical, kinetic fluorescence intensity, dose response (AID 624326); type: functional;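 further: rate of fluorescence rise from hydrolysis of a fluorogenic O-methyl fluorescein ester substrate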
[8] = target: T3, Short transient receptor potential channel 4 (Mus musculus, UniProt Q9QUQ5); assay: calcium entry via TRPC4 opening agents – cell-based, HEK293 TRPC4/mu-opioid, Fluo-4 calcium, dose response (AID 434937); type: functional
T3 sequence (Q9QUQ5 whole entry): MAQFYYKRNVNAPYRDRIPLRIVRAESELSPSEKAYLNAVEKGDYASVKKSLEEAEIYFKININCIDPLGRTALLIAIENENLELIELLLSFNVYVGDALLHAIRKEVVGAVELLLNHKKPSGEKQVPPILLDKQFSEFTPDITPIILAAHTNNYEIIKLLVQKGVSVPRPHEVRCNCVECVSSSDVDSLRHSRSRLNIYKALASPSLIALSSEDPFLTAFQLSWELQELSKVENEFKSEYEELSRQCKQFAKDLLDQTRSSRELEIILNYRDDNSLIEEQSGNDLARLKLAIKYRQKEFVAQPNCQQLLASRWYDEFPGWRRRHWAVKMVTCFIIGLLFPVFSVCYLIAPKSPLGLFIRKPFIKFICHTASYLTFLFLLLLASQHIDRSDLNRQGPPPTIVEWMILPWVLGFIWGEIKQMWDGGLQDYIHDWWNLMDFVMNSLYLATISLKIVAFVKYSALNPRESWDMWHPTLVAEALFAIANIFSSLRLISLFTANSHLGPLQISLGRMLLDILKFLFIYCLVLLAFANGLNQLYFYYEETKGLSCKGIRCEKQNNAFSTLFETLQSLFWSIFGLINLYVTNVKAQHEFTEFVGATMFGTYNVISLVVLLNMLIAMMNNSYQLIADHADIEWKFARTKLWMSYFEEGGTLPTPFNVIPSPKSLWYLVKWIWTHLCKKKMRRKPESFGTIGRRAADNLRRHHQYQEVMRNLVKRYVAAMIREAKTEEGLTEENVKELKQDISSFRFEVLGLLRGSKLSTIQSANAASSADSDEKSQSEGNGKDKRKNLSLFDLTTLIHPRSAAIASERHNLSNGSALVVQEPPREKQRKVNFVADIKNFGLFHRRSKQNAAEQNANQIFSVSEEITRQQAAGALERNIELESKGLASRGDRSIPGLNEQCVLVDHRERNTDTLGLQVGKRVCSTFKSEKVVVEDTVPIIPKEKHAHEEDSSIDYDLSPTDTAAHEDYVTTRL

[9] = target: T4, Histone-lysine N-methyltransferase NSD2 (Homo sapiens, UniProt O96028); type: biochemical
T4 sequence (O96028 whole entry): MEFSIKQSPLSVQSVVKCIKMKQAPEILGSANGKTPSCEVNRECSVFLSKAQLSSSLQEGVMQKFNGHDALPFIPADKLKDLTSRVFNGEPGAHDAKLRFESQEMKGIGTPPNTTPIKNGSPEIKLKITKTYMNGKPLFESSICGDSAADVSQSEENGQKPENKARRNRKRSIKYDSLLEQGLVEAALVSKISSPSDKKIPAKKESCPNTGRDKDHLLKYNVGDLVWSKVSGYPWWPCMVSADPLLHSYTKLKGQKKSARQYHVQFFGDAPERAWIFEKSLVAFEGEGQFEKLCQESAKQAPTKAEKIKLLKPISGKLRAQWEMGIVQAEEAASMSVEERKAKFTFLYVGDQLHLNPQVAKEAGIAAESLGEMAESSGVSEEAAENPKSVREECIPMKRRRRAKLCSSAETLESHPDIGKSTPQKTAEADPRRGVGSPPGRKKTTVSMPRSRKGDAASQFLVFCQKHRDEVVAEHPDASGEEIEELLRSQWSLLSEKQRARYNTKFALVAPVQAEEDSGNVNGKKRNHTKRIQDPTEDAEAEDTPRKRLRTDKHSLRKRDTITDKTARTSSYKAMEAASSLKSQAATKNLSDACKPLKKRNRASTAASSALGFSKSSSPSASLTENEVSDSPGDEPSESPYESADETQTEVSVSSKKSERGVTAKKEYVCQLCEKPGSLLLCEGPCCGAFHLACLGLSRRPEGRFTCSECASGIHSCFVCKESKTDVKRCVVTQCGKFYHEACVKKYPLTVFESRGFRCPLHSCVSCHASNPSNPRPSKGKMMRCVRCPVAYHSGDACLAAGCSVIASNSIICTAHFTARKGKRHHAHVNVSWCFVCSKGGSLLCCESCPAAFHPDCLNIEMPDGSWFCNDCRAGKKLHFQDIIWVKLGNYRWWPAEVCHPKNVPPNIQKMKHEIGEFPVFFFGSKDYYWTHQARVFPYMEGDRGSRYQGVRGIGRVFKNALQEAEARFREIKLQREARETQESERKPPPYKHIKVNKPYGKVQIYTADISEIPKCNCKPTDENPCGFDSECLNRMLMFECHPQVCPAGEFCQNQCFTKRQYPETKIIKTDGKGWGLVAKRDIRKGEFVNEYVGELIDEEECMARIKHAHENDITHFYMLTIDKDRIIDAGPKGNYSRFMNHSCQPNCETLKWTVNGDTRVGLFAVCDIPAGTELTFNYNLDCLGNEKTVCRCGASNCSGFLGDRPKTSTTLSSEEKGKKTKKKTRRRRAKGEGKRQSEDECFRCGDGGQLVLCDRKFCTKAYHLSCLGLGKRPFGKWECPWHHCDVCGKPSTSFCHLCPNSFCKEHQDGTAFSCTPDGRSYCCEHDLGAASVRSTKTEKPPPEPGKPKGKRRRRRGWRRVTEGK

[10] = target: DNA dC->dU-editing enzyme APOBEC-3A (Homo sapiens, UniProt P31941); assay: Dose Response confirmation of small molecule APOBEC3A DNA Deaminase Inhibitors via a fluorescence-based single-stranded DNA deaminase assay. [Related pubchem assays (depositor defined):AID493011, AID493024]; type: functional
[11] = target: DNA dC->dU-editing enzyme APOBEC-3G (Homo sapiens, UniProt Q9HC16); type: functional;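 further: Dose-response counterscreen measuring inhibition of APOBEC3G DNA deaminase activity, run while confirming APOBEC3A inhibitors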
[12] = Dd2 malaria parasite growth inhibition potency – SYBR Green, dry powder samples, dose response (AID 1159566); type: functional, cell-based;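 further: potency for growth inhibition with lower SYBR green DNA signal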
[13] = P. falciparum Dd2 growth inhibitors, dose response, SYBR Green, cherry-picked samples (AID 1159567); type: functional, cell-based
[14] = growth inhibition of yeast DHODH-expressing 3D7 parasites – SYBR Green, dry powder samples, dose response (AID 1159570); type: functional, cell-based;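 further: parasite growth measured after 72 hours of compound exposure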
[15] = toxicity to human HepG2 hepatoma cells – cell-based, plate reader, dry powder samples, cytotoxicity control, dose response (AID 1159569); type: functional;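 further: inhibitor potency with signal falling toward the positive control level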
[16] = growth inhibition of PfATP4-mutant resistant parasites – NITD609-resistant line, SYBR Green, dry powder, dose response (AID 1159571); type: functional, cell-based;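 further: parasites synchronized at ring stage by sorbitol before testing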
[17] = target: T5, Zinc finger protein mex-5 (Caenorhabditis elegans, UniProt Q9XUB2); assay: potency of MEX-5 RNA-binding blockers – biochemical, C. elegans, fluorescence polarization, dose response (AID 1960)
T5 sequence (Q9XUB2 whole entry): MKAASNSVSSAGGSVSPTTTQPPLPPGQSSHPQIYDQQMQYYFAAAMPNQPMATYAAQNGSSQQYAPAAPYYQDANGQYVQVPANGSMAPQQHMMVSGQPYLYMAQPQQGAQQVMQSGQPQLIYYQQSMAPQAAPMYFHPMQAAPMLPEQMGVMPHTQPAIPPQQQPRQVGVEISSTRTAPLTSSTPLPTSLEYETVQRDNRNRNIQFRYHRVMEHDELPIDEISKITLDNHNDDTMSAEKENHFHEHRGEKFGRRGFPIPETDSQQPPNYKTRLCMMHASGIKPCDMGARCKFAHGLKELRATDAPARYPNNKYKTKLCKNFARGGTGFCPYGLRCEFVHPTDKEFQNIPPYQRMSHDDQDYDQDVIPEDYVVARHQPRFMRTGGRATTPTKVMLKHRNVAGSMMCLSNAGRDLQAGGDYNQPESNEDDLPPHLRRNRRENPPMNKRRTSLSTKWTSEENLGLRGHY

[18] = target: T6, RNA-binding protein pos-1 (Caenorhabditis elegans, UniProt G5EF15); assay: disruptors of C. elegans POS-1 RNA interaction – biochemical, fluorescence polarization, dose response (AID 1964);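 further: purified POS-1 fused to maltose binding protein made in E. coli; potency of compounds blocking POS-1 binding to fluorescent RNA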
T6 sequence (G5EF15 whole entry): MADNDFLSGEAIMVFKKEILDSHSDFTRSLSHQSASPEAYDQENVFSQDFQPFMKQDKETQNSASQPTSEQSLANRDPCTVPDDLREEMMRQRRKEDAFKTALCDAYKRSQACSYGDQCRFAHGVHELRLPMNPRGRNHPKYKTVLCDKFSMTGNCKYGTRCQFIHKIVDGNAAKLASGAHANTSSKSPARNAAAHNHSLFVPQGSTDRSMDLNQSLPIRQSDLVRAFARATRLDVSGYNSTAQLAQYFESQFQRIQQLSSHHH

[19] = target: T7, Small ubiquitin-related modifier 1 (Homo sapiens, UniProt P63165); assay: SUMO1 protein-protein binding blockers, potency – biochemical, FRET, dose response (AID 624383); type: functional; conditions: read-out: IC50_Mean
[20] = target: T7, Small ubiquitin-related modifier 1; assay: SUMO1 protein interaction blockers, potency – biochemical, fluorescence polarization, uHTS hits, dose response (AID 624382); type: functional; conditions: read-out: IC50_Mean
[21] = system: INS1; assay: INS-1E survival protection against cytokine death – cell-based, luminescence, retest, dose response (AID 449756); type: functional; conditions: Rattus norvegicus;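 further: cell death triggered by IL-1 beta plus TNF-alpha plus IFN-gamma mixture; protective hits raise ATP signal compared with cytokine alone wells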
[22] = target: Induced myeloid leukemia cell differentiation protein Mcl-1 (Homo sapiens, UniProt Q07820); type: functional
Induced myeloid leukemia cell differentiation protein Mcl-1, sequence (Q07820 whole entry): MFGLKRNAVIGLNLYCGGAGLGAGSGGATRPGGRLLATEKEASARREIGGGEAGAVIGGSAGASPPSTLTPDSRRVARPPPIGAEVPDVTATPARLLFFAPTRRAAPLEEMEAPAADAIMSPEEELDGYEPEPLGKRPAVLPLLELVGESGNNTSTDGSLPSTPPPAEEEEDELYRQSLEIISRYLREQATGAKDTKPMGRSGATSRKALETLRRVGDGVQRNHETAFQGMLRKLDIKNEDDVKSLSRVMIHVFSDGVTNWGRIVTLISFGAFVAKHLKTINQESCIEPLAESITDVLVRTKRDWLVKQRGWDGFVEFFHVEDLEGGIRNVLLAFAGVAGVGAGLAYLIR

DNA dC->dU-editing enzyme APOBEC-3A, sequence (P31941 whole entry): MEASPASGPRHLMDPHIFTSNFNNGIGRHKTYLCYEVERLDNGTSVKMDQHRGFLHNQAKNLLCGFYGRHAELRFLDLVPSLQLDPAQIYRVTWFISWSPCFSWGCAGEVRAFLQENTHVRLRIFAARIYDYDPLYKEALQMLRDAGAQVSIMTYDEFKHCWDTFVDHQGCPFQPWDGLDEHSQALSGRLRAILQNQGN
DNA dC->dU-editing enzyme APOBEC-3G, sequence (Q9HC16 whole entry): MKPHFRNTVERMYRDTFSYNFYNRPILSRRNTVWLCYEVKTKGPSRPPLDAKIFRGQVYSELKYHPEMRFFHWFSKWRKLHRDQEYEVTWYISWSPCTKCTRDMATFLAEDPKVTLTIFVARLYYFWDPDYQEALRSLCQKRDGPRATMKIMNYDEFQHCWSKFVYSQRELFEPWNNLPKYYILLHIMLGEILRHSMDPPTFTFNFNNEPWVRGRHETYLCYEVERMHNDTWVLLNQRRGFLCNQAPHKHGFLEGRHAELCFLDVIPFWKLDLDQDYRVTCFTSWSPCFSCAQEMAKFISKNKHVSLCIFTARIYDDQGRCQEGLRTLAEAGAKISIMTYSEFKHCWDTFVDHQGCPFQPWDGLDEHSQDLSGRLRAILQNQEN
T7 sequence (P63165 whole entry): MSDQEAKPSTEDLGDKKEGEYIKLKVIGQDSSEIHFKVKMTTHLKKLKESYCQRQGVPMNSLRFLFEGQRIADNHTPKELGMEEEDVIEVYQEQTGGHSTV
Fatty acid synthase, sequence (P49327 whole entry): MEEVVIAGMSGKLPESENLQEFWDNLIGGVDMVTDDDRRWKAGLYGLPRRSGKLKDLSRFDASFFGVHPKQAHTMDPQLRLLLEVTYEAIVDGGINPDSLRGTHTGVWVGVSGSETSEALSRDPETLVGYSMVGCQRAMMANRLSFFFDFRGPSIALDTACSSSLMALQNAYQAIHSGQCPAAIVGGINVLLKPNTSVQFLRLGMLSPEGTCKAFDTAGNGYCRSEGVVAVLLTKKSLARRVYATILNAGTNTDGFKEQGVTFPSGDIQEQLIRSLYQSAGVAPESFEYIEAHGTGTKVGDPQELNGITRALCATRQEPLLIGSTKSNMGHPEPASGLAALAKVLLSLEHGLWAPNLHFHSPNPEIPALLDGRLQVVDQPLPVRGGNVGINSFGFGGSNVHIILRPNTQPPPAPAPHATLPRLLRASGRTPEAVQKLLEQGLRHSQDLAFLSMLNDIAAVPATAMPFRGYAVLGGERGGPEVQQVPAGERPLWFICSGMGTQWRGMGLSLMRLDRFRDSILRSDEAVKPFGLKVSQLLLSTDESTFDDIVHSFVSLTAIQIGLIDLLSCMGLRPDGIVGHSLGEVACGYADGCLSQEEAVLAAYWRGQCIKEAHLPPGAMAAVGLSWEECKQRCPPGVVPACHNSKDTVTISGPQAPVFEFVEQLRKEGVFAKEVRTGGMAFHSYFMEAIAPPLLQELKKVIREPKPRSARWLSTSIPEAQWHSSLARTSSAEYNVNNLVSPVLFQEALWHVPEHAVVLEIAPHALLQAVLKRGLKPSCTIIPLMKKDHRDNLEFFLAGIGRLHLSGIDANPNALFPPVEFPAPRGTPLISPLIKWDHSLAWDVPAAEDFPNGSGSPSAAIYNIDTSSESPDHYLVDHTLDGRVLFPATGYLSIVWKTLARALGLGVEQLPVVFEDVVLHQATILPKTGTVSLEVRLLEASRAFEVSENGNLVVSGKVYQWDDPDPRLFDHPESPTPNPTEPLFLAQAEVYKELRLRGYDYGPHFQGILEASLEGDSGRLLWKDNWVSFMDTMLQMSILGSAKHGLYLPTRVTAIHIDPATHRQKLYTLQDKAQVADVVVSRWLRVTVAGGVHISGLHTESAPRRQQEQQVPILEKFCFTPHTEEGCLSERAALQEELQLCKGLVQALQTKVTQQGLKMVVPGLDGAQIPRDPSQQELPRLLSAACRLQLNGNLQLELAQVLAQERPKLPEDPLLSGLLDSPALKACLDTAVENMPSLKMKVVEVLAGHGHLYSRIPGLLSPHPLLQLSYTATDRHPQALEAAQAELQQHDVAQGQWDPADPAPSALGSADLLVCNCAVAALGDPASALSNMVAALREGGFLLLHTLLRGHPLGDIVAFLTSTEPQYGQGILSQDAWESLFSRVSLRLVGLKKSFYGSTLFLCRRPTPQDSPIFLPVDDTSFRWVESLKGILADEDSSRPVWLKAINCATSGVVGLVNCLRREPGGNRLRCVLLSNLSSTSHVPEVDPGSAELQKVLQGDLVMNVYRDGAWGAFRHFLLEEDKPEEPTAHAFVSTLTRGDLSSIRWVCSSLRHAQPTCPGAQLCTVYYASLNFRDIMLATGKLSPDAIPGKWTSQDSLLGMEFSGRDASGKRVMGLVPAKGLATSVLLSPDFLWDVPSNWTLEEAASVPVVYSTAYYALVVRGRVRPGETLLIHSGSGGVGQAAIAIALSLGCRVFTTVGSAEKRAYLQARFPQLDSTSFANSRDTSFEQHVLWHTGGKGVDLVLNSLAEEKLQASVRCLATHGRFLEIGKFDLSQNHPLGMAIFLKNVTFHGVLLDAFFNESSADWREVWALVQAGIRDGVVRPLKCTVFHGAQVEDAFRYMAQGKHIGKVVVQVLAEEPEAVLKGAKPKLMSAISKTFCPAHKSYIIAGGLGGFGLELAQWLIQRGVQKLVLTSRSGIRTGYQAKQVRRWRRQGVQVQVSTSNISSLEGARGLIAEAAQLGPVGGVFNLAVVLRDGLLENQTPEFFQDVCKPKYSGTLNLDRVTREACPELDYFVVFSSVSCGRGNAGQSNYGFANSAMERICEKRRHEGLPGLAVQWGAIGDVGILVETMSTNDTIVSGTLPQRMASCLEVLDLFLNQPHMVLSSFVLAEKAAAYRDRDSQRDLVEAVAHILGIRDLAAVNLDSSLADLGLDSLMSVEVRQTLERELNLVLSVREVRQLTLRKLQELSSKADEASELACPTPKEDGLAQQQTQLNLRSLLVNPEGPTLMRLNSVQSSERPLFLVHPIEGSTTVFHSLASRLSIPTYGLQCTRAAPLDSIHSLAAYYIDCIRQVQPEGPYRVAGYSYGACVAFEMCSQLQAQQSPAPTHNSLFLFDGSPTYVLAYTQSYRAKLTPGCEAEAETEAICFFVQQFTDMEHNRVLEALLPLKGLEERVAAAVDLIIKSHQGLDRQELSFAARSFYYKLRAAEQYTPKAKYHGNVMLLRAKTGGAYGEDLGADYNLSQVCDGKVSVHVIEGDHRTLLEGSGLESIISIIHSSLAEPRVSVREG

IC50 [1]: > 100 µM (active)
SMILES: CN1c2ccsc2/C(=N/NC(=O)c2c(F)cccc2F)CS1(=O)=O

SMILES: Cc1ccc(N(C(=O)c2snc(C(N)=O)c2N)C(C(=O)NCCC(C)C)c2ccco2)cc1 (centres undefined)
IC50 [2]: > 20 µM (inactive)
IC50 [3]: 10.9 µM (active)
IC50 [4]: 17 µM (active)
EC50 [5]: 1.1 µM (active)
EC50 [6]: > 60 µM (not active)

IC50 [7]: 2.73 µM (active)
SMILES: O=C(OCc1ccc([N+](=O)[O-])cc1)c1cc([N+](=O)[O-])ccc1N1CCOCC1

EC50 [8]: 4.73 µM (active)
AC50 [9]: > 20 µM (inactive)
SMILES: CNCCCOc1ccc2c(c1)CCC2

SMILES: O=C(O)c1cc2nc(-c3cccs3)cc(C(F)(F)F)n2n1
IC50 [10]: 12.1 µM (active)
IC50 [11]: > 100 µM (inactive)

SMILES: C[C@@H]1CN([C@H](C)CO)C(=O)c2cccc(NC(=O)c3nc4ccccc4s3)c2O[C@H]1CN(C)C(=O)NC1CCCCC1
AC50 [12]: 0.196 µM (active)
AC50 [13]: 2.73 µM (active)
AC50 [14]: 0.114 µM (active)
AC50 [15]: > 100 µM (inactive)
AC50 [16]: 0.152 µM (active)

IC50 [2]: > 20 µM (inactive)
IC50 [3]: > 20 µM (inactive)
IC50 [4]: 18.4 µM (active)
SMILES: Cc1ccc2cc3c(nc2c1)N(c1ccccc1)CC3

SMILES: COc1ccc2c3c([nH]c2c1)[C@H](CO)N(C(=O)Nc1ccc(F)cc1)CC31CCN(Cc2cc(-c3ccccc3)on2)CC1
AC50 [12]: 0.452 µM (active)
AC50 [13]: 1.43 µM (active)
AC50 [14]: 1.47 µM (active)
AC50 [15]: 30.3 µM (active)
AC50 [16]: 0.876 µM (active)

IC50 [1]: > 100 µM (active)
SMILES: O=c1cc(O)nc(SCc2ccccc2Cl)[nH]1

IC50 [1]: > 100 µM (active)
SMILES: O=C(NCc1ccco1)C1CCCN(S(=O)(=O)c2cccc3nsnc23)C1 (centres undefined)

IC50 [2]: > 20 µM (inactive)
IC50 [3]: 18.1 µM (active)
IC50 [4]: 19.1 µM (active)
SMILES: O=C1c2cccc3cccc(c23)C(=O)N1Cc1cccnc1

IC50 [1]: > 100 µM (active)
SMILES: Nc1nc(SCc2nc(-c3ccccc3)no2)nc(O)c1-c1ccccc1

IC50 [1]: > 100 µM (active)
SMILES: CN1CCN(C(=O)c2ccc(N(C)S(=O)(=O)c3cccs3)cc2)CC1

SMILES: O=C(O)c1cccc(-n2cccc2/C=C2\NC(=O)N(Cc3ccc(F)cc3)C2=O)c1
IC50 [10]: 11.4 µM (active)
EC50 [17]: > 150 µM (not active)
IC50 [11]: 29.7 µM (active)
EC50 [18]: > 300 µM (not active)

IC50 [2]: > 20 µM (inactive)
IC50 [3]: 8.19 µM (active)
IC50 [4]: 7.29 µM (active)
SMILES: Cc1ccc(C(=O)NNC(=O)c2nn(-c3ccc(F)cc3)ccc2=O)cc1

SMILES: N#Cc1ccc(-c2ccc([C@@H]3[C@@H]4CN(C(=O)C5CCCC5)C[C@H]3N4)cc2)cc1
AC50 [12]: 2.25 µM (active)
AC50 [13]: 2.72 µM (active)
AC50 [14]: 3.48 µM (active)
AC50 [15]: 51 µM (active)
AC50 [16]: 3.53 µM (active)

SMILES: C=CC[n+]1c2n(c3ccccc3c1=O)CCCCC2
IC50 [10]: 3.57 µM (active)
IC50 [11]: 6.84 µM (active)

SMILES: O=C(Nc1ccc(Nc2ccncc2)cc1)c1ccc(Nc2ccnc3ccc([N+](=O)[O-])cc23)cc1[N+](=O)[O-]
IC50 [19]: 10.3 µM (active)
IC50 [20]: > 66.6 µM (inactive)
AC50 [21]: 10.5 µM (active)
IC50 [22]: 2.46 µM (active)
